The text below walks through data of patent publication US20260327191A1, “GSK3a INHIBITORS AND METHODS OF USE THEREOF” (Blueprint Medicines Corporation, priority 2023, published 2026).

The term IC50 denotes the concentration needed to halve the response being measured.

For test [1], the target named is T1, human GSK3α (Homo sapiens, UniProt P49840).
T1 construct: Full length human GSK3α or GSK3B expressed as N-terminal GST fusion proteins; GST (N); purchased Carna Biosciences (Japan); host or cells: baculovirus host
The test is described as follows: In vitro enzymatic activity assay, GSK3α. The test is classed as biochemical. Particulars: 1.0 mM ATP, 1.0 μM peptide substrate, 120 min, 25° C, read-out: Enzyme GSK3α (IC50).

The target in test [2] is T2, GSK3A (Homo sapiens, UniProt P49840).
T2 construct: expressed in transfected cells
The test is described as follows: NanoBRET cellular target engagement assay, Nanoluc-GSK3A in HEK293 cells. The test is classed as cell-based. Particulars: NanoBRET GSK3α IC50, HEK293 cells, tracer K-8, 2 hours, 37° C. (BRET reads energy transfer from a luciferase to a nearby fluorophore.)

For test [3], the target named is T3, GSK3B (Homo sapiens, UniProt P49841). The test is described as follows: NanoBRET cellular target engagement assay, Nanoluc-GSK3B in HEK293 cells. In kind it is cell-based. Further details: expressed in transfected cells. The following applies: NanoBRET GSK3β IC50, HEK293 cells, tracer K-8, 2 hours, 37° C.
Test [4] deals with T3, GSK3B. The test is described as follows: In vitro enzymatic activity assay, GSK3β. Further details: Full length human GSK3α or GSK3B expressed as N-terminal GST fusion proteins; GST (N); purchased Carna Biosciences (Japan); host or cells: baculovirus host. Particulars: 1.0 mM ATP, 1.0 μM peptide substrate, 120 min, 25° C, read-out: Enzyme GSK3β (IC50). The test is classed as biochemical.

T3 sequence (P49841 whole entry, the tested form may be a part): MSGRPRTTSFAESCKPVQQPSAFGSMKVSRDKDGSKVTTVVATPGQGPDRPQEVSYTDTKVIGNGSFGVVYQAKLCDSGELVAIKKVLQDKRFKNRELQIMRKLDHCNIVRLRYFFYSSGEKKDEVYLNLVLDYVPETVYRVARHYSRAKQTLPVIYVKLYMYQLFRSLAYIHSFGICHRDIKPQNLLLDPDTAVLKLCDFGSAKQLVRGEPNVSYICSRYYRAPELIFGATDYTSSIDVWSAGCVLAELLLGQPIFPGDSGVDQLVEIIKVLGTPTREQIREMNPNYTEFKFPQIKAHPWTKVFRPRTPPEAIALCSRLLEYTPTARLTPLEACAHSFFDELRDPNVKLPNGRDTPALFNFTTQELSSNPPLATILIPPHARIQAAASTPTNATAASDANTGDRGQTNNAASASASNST
T1 sequence (P49840 whole entry, the tested form may be a part): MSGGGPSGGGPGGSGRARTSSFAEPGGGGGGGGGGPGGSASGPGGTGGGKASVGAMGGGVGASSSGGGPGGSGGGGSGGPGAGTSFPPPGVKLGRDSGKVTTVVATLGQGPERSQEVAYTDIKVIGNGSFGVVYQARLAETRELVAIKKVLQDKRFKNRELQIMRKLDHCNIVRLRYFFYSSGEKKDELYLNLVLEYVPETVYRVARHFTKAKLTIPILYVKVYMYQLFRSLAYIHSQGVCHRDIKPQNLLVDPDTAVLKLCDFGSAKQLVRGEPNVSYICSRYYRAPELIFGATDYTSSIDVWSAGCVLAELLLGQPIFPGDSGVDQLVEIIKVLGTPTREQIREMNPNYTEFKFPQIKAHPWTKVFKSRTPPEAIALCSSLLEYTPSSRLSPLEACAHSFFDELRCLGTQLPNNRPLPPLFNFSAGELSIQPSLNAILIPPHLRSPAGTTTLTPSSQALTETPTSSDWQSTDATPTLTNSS
T2 sequence (P49840 whole entry): as the sequence (P49840 whole entry, the tested form may be a part) above

For `COc1cc(Cl)c(-n2cnc(N)c(C(=O)Nc3cncc([C@H]4CCC[C@H](C)N4)c3)c2=O)c(Cl)c1` (single isomer, unassigned) [Example 81], the IC50 in test [1] came to 5.9 nM; in test [2], 2.3 nM; in test [3], 117 nM; in test [4], 314 nM.

With `COc1cc(Cl)c(-n2cnc(N)c(C(=O)Nc3cncc(C(N)CC(F)F)c3)c2=O)c(Cl)c1` (single isomer, unassigned) [Example 82, (R)-4-amino-N-(5-(1-amino-3,3-difluoropropyl)pyridin-3-yl)-1-(2,6-dichloro-4-methoxyphenyl)-6-oxo-1,6-dihydropyrimidine-5-carboxamide or (S)-4-amino-N-(5-(1-amino-3,3-difluoropropyl)pyridin-3-yl)-1-(2,6-dichloro-4-methoxyphenyl)-6-oxo-1,6-dihydropyrimidine-5-carboxamide], the IC50 was 4.5 nM in test [1], 4 nM in test [2], 269 nM in test [3] and 248 nM in test [4].

In the case of `COc1cc(Cl)c(-n2cnc(N)c(C(=O)Nc3cncc(C4CCCC(C)N4)c3)c2=O)c(Cl)c1` (single isomer, unassigned) [Example 83], the IC50 came to 7 nM in test [1], 4.1 nM in test [2], 336 nM in test [3] and 490 nM in test [4].

On to `COc1cc(Cl)c(-n2cnc(N)c(C(=O)Nc3cncc([C@H]4CCC[C@H](C)N4)c3)c2=O)c(Cl)c1` (single isomer, unassigned) [Example 84], for which the IC50 came out at 3.8 nM in test [1], 2.5 nM in test [2], 179 nM in test [3] and 254 nM in test [4].

Consider `COc1cc(Cl)c(-n2cnc(N)c(C(=O)Nc3cncc(C(N)CC(F)F)c3)c2=O)c(Cl)c1` (single isomer, unassigned) [Example 85, (R)-4-amino-N-(5-(1-amino-3,3-difluoropropyl)pyridin-3-yl)-1-(2,6-dichloro-4-methoxyphenyl)-6-oxo-1,6-dihydropyrimidine-5-carboxamide or (S)-4-amino-N-(5-(1-amino-3,3-difluoropropyl)pyridin-3-yl)-1-(2,6-dichloro-4-methoxyphenyl)-6-oxo-1,6-dihydropyrimidine-5-carboxamide], for which the IC50 in test [1] is 9.4 nM; in test [2] it was 4.2 nM; in test [3], 374 nM; in test [4], 551 nM.

With `Cc1cc(C(F)(F)F)cc(C)c1-n1cnc(N)c(C(=O)Nc2cncc(C3CCC(C)N3)c2)c1=O` (single isomer, unassigned) [Example 87], the 50% inhibitory concentration (IC50) amounted to 17.9 nM in test [1], 7.6 nM in test [2], 543 nM in test [3] and 1130 nM in test [4].

Regarding `CCC(N)c1cncc(NC(=O)c2c(N)ncn(-c3c(C)cc(C(F)(F)F)cc3C)c2=O)c1` (single isomer, unassigned) [Example 88, (R)-4-amino-N-(5-(1-aminopropyl)pyridin-3-yl)-1-(2,6-dimethyl-4-(trifluoromethyl)phenyl)-6-oxo-1,6-dihydropyrimidine-5-carboxamide or (S)-4-amino-N-(5-(1-aminopropyl)pyridin-3-yl)-1-(2,6-dimethyl-4-(trifluoromethyl)phenyl)-6-oxo-1,6-dihydropyrimidine-5-carboxamide], the half-inhibitory concentration (IC50) in test [1] was found to be 15.4 nM; in test [2], 8.1 nM; in test [3] it was 454 nM; in test [4], 1020 nM.

With `Cc1cc(C(F)(F)F)cc(C)c1-n1cnc(N)c(C(=O)Nc2cncc(C3CCCCCN3)c2)c1=O` (single isomer, unassigned) [Example 89, (R)-4-amino-N-(5-(azepan-2-yl)pyridin-3-yl)-1-(2,6-dimethyl-4-(trifluoromethyl)phenyl)-6-oxo-1,6-dihydropyrimidine-5-carboxamide or (S)-4-amino-N-(5-(azepan-2-yl)pyridin-3-yl)-1-(2,6-dimethyl-4-(trifluoromethyl)phenyl)-6-oxo-1,6-dihydropyrimidine-5-carboxamide], the IC50 in test [1] is 10.2 nM; in test [2] it was 6.4 nM; in test [3], 485 nM; in test [4] it was 669 nM.
